Experimental data: BigSolDB 2.1

NC(N)=NCCC[C@H](NC(=O)OCc1ccccc1)C(=O)O
solubility (mole fraction)
Settings	283.15 K	288.15 K	293.15 K	298.15 K	303.15 K	313.15 K	323.15 K
in 2-butanone	9.88e-05	–	0.000118	–	0.000136	0.000164	0.000196
in DMF	0.00164	–	0.00346	–	0.00597	0.00993	0.0183
in acetone	2.5e-05	–	4.7e-05	–	5.73e-05	6.89e-05	9.91e-05
in acetonitrile	1.5e-05	–	2.71e-05	–	3.52e-05	4.03e-05	4.82e-05
in dichloromethane	8.03e-05	0.000103	0.000144	0.000183	0.000233	–	–
in ethanol	0.000193	–	0.000255	–	0.000379	0.000558	0.000898
in ethyl acetate	4.73e-05	–	6.24e-05	–	7.31e-05	8.72e-05	9.78e-05
in isopropanol	7.15e-05	–	0.000127	–	0.000163	0.000223	0.000275
in methanol	0.000468	–	0.000602	–	0.00107	0.00137	0.00207
in n-butanol	6.05e-05	–	0.000103	–	0.000141	0.000178	0.000239
in n-hexane	4.3e-05	–	5.7e-05	–	7.42e-05	8.12e-05	0.000119
in water	0.000198	–	0.000307	–	0.000417	0.000663	0.00104
